Converted amounts (≈) assume the structure as drawn. Counter-ions that a name gives are not always drawn.
Assays:
Type in all cases: functional, organism-based
[1] = tested on: Mycolicibacterium smegmatis; experiment: Antimycobacterial activity against Mycobacterium smegmatis grown in carbon-limited broth medium assessed as growth inhibition in mid-logarithmic phase by spectrophotometry
[2] = tested on: Mycolicibacterium smegmatis; experiment: Antimycobacterial activity against Mycobacterium smegmatis grown in carbon-limited broth medium assessed as growth inhibition in mid-logarithmic phase by GFP-based fluorescence assay
[3] = tested on: Mycolicibacterium smegmatis; experiment: Antimycobacterial activity against Mycobacterium smegmatis grown in Luria-Bertani broth medium assessed as growth inhibition in mid-logarithmic phase by spectrophotometry
[4] = tested on: Mycolicibacterium smegmatis; experiment: Antimycobacterial activity against Mycobacterium smegmatis grown in nitrogen -limited broth medium assessed as growth inhibition in mid-logarithmic phase by GFP-based fluorescence assay
[5] = tested on: Mycolicibacterium smegmatis; experiment: Antimycobacterial activity against Mycobacterium smegmatis grown in Luria-Bertani broth medium assessed as growth inhibition in mid-logarithmic phase by GFP-based fluorescence assay
[6] = tested on: Mycolicibacterium smegmatis; experiment: Antimycobacterial activity against Mycobacterium smegmatis grown in nitrogen -limited broth medium assessed as growth inhibition in mid-logarithmic phase by spectrophotometry

Row | Compound | IC50 ([1]; Mycolicibacterium smegmatis) | MIC ([1]; Mycolicibacterium smegmatis) | IC50 ([2]; Mycolicibacterium smegmatis) | MIC ([2]; Mycolicibacterium smegmatis) | IC50 ([3]; Mycolicibacterium smegmatis) | MIC ([3]; Mycolicibacterium smegmatis) | IC50 ([4]; Mycolicibacterium smegmatis) | MIC ([4]; Mycolicibacterium smegmatis) | IC50 ([5]; Mycolicibacterium smegmatis) | MIC ([5]; Mycolicibacterium smegmatis) | IC50 ([6]; Mycolicibacterium smegmatis) | MIC ([6]; Mycolicibacterium smegmatis) | other results
1 | O=S1(=O)N(CCN2CC=C(c3c[nH]c4cc(F)ccc34)CC2)c2cccc3c2N1CCC3 | 25.3 µM | 25 µM (≈ 11.3 µg/mL) | 25.3 µM | 25 µM (≈ 11.3 µg/mL) | 25.1 µM | 50 µM (≈ 22.6 µg/mL) | 22.3 µM | 50 µM (≈ 22.6 µg/mL) | 25.1 µM | 50 µM (≈ 22.6 µg/mL) | 22.3 µM | 50 µM (≈ 22.6 µg/mL) | –
2 | Cc1cc(N)c2ccccc2[n+]1CCCCCCCCCCCCCC[n+]1c(C)cc(N)c2ccccc21 | 2.73 µM | 6.25 µM | 2.73 µM | 6.25 µM | 3.95 µM | 6.25 µM | 1.74 µM | 3.12 µM | 3.95 µM | 6.25 µM | 1.74 µM | 3.12 µM | –
3 | CN(C)C(CCCCC[N+](C)(C)CCCN1C(=O)c2cccc3cccc(c23)C1=O)CCCN1C(=O)c2cccc3cccc(c23)C1=O (centres undefined) | 11.7 µM | 50 µM | 11.7 µM | 50 µM | 8.15 µM | 50 µM | 6 µM | 25 µM | 8.15 µM | 50 µM | 6 µM | 25 µM | –
4 | 4-CHLOROMERCURIBENZOIC ACID | – | – | – | – | – | – | – | – | – | – | – | – | IC50 [1]: 7.65 µM; IC50 [2]: 7.65 µM; IC50 [3]: 7.07 µM; IC50 [4]: 6.33 µM; IC50 [5]: 7.07 µM; IC50 [6]: 6.33 µM
5 | 4-[sequence] ACID | – | – | – | – | – | – | – | – | – | – | – | – | MIC [1]: 6.25 µM; MIC [2]: 6.25 µM; MIC [3]: 25 µM; MIC [4]: 12.5 µM; MIC [5]: 25 µM; MIC [6]: 12.5 µM
6 | Cc1c(C)c2c(c(C)c1O)CCC(C)(CN1CCN(c3cc(N4CCCC4)nc(N4CCCC4)n3)CC1)O2 (single isomer, unassigned) | > 50 µM | 50 µM (≈ 26 µg/mL) | > 50 µM | 50 µM (≈ 26 µg/mL) | > 50 µM | 50 µM (≈ 26 µg/mL) | 34.2 µM | 50 µM (≈ 26 µg/mL) | > 50 µM | 50 µM (≈ 26 µg/mL) | 34.2 µM | 50 µM (≈ 26 µg/mL) | –
7 | CC(C)(C)c1ccc(S(=O)(=O)/C=C/C#N)cc1 [BAY-11-7085] | 2.58 µM | 6.25 µM (≈ 1.56 µg/mL) | 2.58 µM | 6.25 µM (≈ 1.56 µg/mL) | 30.6 µM | 50 µM (≈ 12.5 µg/mL) | 6.22 µM | 12.5 µM (≈ 3.12 µg/mL) | 30.6 µM | 50 µM (≈ 12.5 µg/mL) | 6.22 µM | 12.5 µM (≈ 3.12 µg/mL) | –
8 | CNc1ccc2oc(C[C@H]3O[C@@]4(CC[C@H]3C)O[C@H]([C@H](C)C(=O)c3ccc[nH]3)[C@H](C)C[C@H]4C)nc2c1C(=O)O [CALCIMYCIN] | 5.21 µM | 12.5 µM (≈ 6.55 µg/mL) | 5.21 µM | 12.5 µM (≈ 6.55 µg/mL) | 1.04 µM | 3.12 µM (≈ 1.64 µg/mL) | 3.43 µM | 12.5 µM (≈ 6.55 µg/mL) | 1.04 µM | 3.12 µM (≈ 1.64 µg/mL) | 3.43 µM | 12.5 µM (≈ 6.55 µg/mL) | –
9 | Clc1ccc(C(c2ccc(Cl)cc2)[n+]2ccn(CC(OCc3ccc(Cl)cc3Cl)c3ccc(Cl)cc3Cl)c2)cc1 (centres undefined) [CALMIDAZOLIUM CHLORIDE] | 13.8 µM | 50 µM | 13.8 µM | 50 µM | 13.2 µM | 12.5 µM | 7.02 µM | 12.5 µM | 13.2 µM | 12.5 µM | 7.02 µM | 12.5 µM | –
10 | Clc1ccccc1C(c1ccccc1)(c1ccccc1)n1ccnc1 [CLOTRIMAZOLE] | 18.2 µM | 50 µM (≈ 17.2 µg/mL) | 18.2 µM | 50 µM (≈ 17.2 µg/mL) | 6.54 µM | 12.5 µM (≈ 4.31 µg/mL) | 12.2 µM | 50 µM (≈ 17.2 µg/mL) | 6.54 µM | 12.5 µM (≈ 4.31 µg/mL) | 12.2 µM | 50 µM (≈ 17.2 µg/mL) | –
11 | CN(C)[C@@H]1C(O)=C(C(N)=O)C(=O)[C@@]2(O)C(O)=C3C(=O)c4c(O)ccc(Cl)c4[C@@H](O)[C@H]3C[C@@H]12 [DEMECLOCYCLINE] | 5.92 µM | 6.25 µM (≈ 2.91 µg/mL) | 5.92 µM | 6.25 µM (≈ 2.91 µg/mL) | 1.88 µM | 3.12 µM (≈ 1.45 µg/mL) | 4.4 µM | 6.25 µM (≈ 2.91 µg/mL) | 1.88 µM | 3.12 µM (≈ 1.45 µg/mL) | 4.4 µM | 6.25 µM (≈ 2.91 µg/mL) | –
12 | c1ccc2c(c1)[I+]c1ccccc1-2 [DIPHENYLENEIODONIUM] | 8.53 µM | 3.12 µM | 8.53 µM | 3.12 µM | 6.77 µM | 6.25 µM | 1.63 µM | 3.12 µM | 6.77 µM | 6.25 µM | 1.63 µM | 3.12 µM | –
13 | C[C@H]1c2cccc(O)c2C(=O)C2=C(O)[C@]3(O)C(=O)C(C(N)=O)=C(O)[C@@H](N(C)C)[C@@H]3[C@@H](O)[C@@H]21 [DOXYCYCLINE] | 2.98 µM | 3.12 µM (≈ 1.39 µg/mL) | 2.98 µM | 3.12 µM (≈ 1.39 µg/mL) | 0.76 µM | 1.56 µM (≈ 0.693 µg/mL) | 1.95 µM | 3.12 µM (≈ 1.39 µg/mL) | 0.76 µM | 1.56 µM (≈ 0.693 µg/mL) | 1.95 µM | 3.12 µM (≈ 1.39 µg/mL) | –
14 | CC(=O)[C@]1(O)Cc2c(O)c3c(c(O)c2[C@@H](O[C@H]2C[C@H](N)[C@H](O)[C@H](C)O2)C1)C(=O)c1ccccc1C3=O [IDARUBICIN] | 6.68 µM | 25 µM (≈ 12.4 µg/mL) | 6.68 µM | 25 µM (≈ 12.4 µg/mL) | 3.61 µM | 12.5 µM (≈ 6.22 µg/mL) | 5.13 µM | 12.5 µM (≈ 6.22 µg/mL) | 3.61 µM | 12.5 µM (≈ 6.22 µg/mL) | 5.13 µM | 12.5 µM (≈ 6.22 µg/mL) | –
15 | CCn1cc(C(=O)O)c(=O)c2cc(F)c(N3CCNC(C)C3)c(F)c21 (centres undefined) [LOMEFLOXACIN] | 4.88 µM | 6.25 µM (≈ 2.2 µg/mL) | 4.88 µM | 6.25 µM (≈ 2.2 µg/mL) | 4.33 µM | 12.5 µM (≈ 4.39 µg/mL) | 1.44 µM | 6.25 µM (≈ 2.2 µg/mL) | 4.33 µM | 12.5 µM (≈ 4.39 µg/mL) | 1.44 µM | 6.25 µM (≈ 2.2 µg/mL) | –
16 | COc1ccccc1CNCCCCCCNCCCCCCCCNCCCCCCNCc1ccccc1OC [METHOCTRAMINE HYDROCHLORIDE] | 6.88 µM | 12.5 µM | 6.88 µM | 12.5 µM | 15.9 µM | 12.5 µM | 7.45 µM | 12.5 µM | 15.9 µM | 12.5 µM | 7.45 µM | 12.5 µM | –
17 | C[Se]C[C@H](N)C(=O)O [METHYLSELENOCYSTEINE] | 2.19 µM | 12.5 µM (≈ 2.28 µg/mL) | 2.19 µM | 12.5 µM (≈ 2.28 µg/mL) | > 50 µM | > 50 µM | 0.6 µM | 12.5 µM (≈ 2.28 µg/mL) | > 50 µM | > 50 µM | 0.6 µM | 12.5 µM (≈ 2.28 µg/mL) | –
18 | CN(C)c1ccc(O)c2c1C[C@H]1C[C@H]3[C@H](N(C)C)C(O)=C(C(N)=O)C(=O)[C@@]3(O)C(O)=C1C2=O [MINOCYCLINE] | 5.02 µM | 12.5 µM (≈ 5.72 µg/mL) | 5.02 µM | 12.5 µM (≈ 5.72 µg/mL) | 6.77 µM | 12.5 µM (≈ 5.72 µg/mL) | 7.23 µM | 12.5 µM (≈ 5.72 µg/mL) | 6.77 µM | 12.5 µM (≈ 5.72 µg/mL) | 7.23 µM | 12.5 µM (≈ 5.72 µg/mL) | –
